ChEMBL document CHEMBL2157891 (J Med Chem, 2012)
One block for each compound: values may come before it. The source made the active and inactive calls. No cut-off for these calls is given here.

Assays:
[1] = test system: MDA-MB-231; assay: cells; conditions: Homo sapiens, MDA-MB-231, 96 h
[2] = test system: SK-OV-3; assay: cells; conditions: Homo sapiens, SK-OV-3, 96 h
[3] = test system: MDA-MB-231; assay: Induction of apoptosis in human MDA-MB-231 cells assessed as caspase 8 cleavage at 3 nM after 24 hrs by Western blot analysis; assay type: functional, cell-based
[4] = test system: SK-OV-3; assay: Induction of apoptosis in human SKOV3 cells assessed as caspase 8 cleavage at 3 nM after 24 hrs by Western blot analysis; assay type: functional, cell-based
[5] = test system: MDA-MB-231; assay: Induction of apoptosis in human MDA-MB-231 cells assessed as PARP cleavage at 3 nM after 24 hrs by Western blot analysis; assay type: functional, cell-based
[6] = test system: SK-OV-3; assay: Induction of apoptosis in human SKOV3 cells assessed as PARP cleavage at 3 nM after 24 hrs by Western blot analysis; assay type: functional, cell-based
[7] = test system: MDA-MB-231; assay: Induction of apoptosis in human MDA-MB-231 cells assessed as caspase 3 cleavage at 3 nM after 24 hrs by Western blot analysis; assay type: functional, cell-based
[8] = test system: SK-OV-3; assay: Induction of apoptosis in human SKOV3 cells assessed as caspase 3 cleavage at 3 nM after 24 hrs by Western blot analysis; assay type: functional, cell-based
[9] = test system: SK-OV-3; assay: Induction of apoptosis in human SKOV3 cells assessed as PARP cleavage at 300 nM after 24 hrs by Western blot analysis; assay type: functional, cell-based
[10] = test system: SK-OV-3; assay: Induction of apoptosis in human SKOV3 cells assessed as caspase 3 cleavage at 10 nM after 24 hrs by Western blot analysis; assay type: functional, cell-based
[11] = test system: MDA-MB-231; assay: Induction of apoptosis in human MDA-MB-231 cells assessed as caspase 8 cleavage at 10 nM after 24 hrs by Western blot analysis; assay type: functional, cell-based
[12] = test system: MDA-MB-231; assay: Induction of apoptosis in human MDA-MB-231 cells assessed as caspase 3 cleavage at 10 nM after 24 hrs by Western blot analysis; assay type: functional, cell-based
[13] = test system: MDA-MB-231; assay: Induction of apoptosis in human MDA-MB-231 cells assessed as PARP cleavage at 300 nM after 24 hrs by Western blot analysis; assay type: functional, cell-based
[14] = test system: SK-OV-3; assay: Induction of apoptosis in human SKOV3 cells assessed as caspase 8 cleavage at 10 nM after 24 hrs by Western blot analysis; assay type: functional, cell-based
[15] = biological target: Baculoviral IAP repeat-containing protein 2 (Homo sapiens, UniProt Q13490); assay: Binding affinity to BIR3 domain of cIAP1 by fluorescence polarization assay

- IC50 [1]: 4.7 nM
- IC50 [2]: 4.7 nM
Compound: CN[C@@H](C)C(=O)N[C@H]1CN(C(=O)CCCCOCCCCC(=O)N2CC[C@H]3CC[C@@H](C(=O)NC(c4ccccc4)c4ccccc4)N3C(=O)[C@@H](NC(=O)[C@H](C)NC)C2)CC[C@H]2CC[C@@H](C(=O)NC(c3ccccc3)c3ccccc3)N2C1=O

- IC50 [1]: 50.8 nM
- IC50 [2]: 180 nM
Compound: CN[C@@H](C)C(=O)N[C@H]1CN(C(=O)c2ccc(C(=O)N3CC[C@H]4CC[C@@H](C(=O)NC(c5ccccc5)c5ccccc5)N4C(=O)[C@@H](NC(=O)[C@H](C)NC)C3)cc2)CC[C@H]2CC[C@@H](C(=O)NC(c3ccccc3)c3ccccc3)N2C1=O

- IC50 [1]: 14.8 nM
- IC50 [2]: 9.9 nM
Compound: CN[C@@H](C)C(=O)N[C@H]1CN(C(=O)CCCCC(=O)N2CC[C@H]3CC[C@@H](C(=O)NC(c4ccccc4)c4ccccc4)N3C(=O)[C@@H](NC(=O)[C@H](C)NC)C2)CC[C@H]2CC[C@@H](C(=O)NC(c3ccccc3)c3ccccc3)N2C1=O

Compound: CN[C@@H](C)C(=O)N[C@H]1CN(C(=O)CCCCCCCCC(=O)N2CC[C@H]3CC[C@@H](C(=O)NC(c4ccccc4)c4ccccc4)N3C(=O)[C@@H](NC(=O)[C@H](C)NC)C2)CC[C@H]2CC[C@@H](C(=O)NC(c3ccccc3)c3ccccc3)N2C1=O
- IC50 [1]: 7.5 nM
- IC50 [2]: 3.1 nM
- Activity [3]: Active
- Activity [4]: Active
- Activity [5]: Active
- Activity [6]: Active
- Activity [7]: Active
- Activity [8]: Active

- IC50 [1]: 13.8 nM
- IC50 [2]: 27 nM
Compound: CN[C@@H](C)C(=O)N[C@H]1CN(C(=O)CCC(=O)N2CC[C@H]3CC[C@@H](C(=O)NC(c4ccccc4)c4ccccc4)N3C(=O)[C@@H](NC(=O)[C@H](C)NC)C2)CC[C@H]2CC[C@@H](C(=O)NC(c3ccccc3)c3ccccc3)N2C1=O

Compound: CN[C@@H](C)C(=O)N[C@H]1CN(C(=O)CCCCc2ccc(CCCCC(=O)N3CC[C@H]4CC[C@@H](C(=O)NC(c5ccccc5)c5ccccc5)N4C(=O)[C@@H](NC(=O)[C@H](C)NC)C3)cc2)CC[C@H]2CC[C@@H](C(=O)NC(c3ccccc3)c3ccccc3)N2C1=O
- IC50 [1]: 3.4 nM
- IC50 [2]: 9.6 nM
- Activity [3]: Active
- Activity [4]: Active
- Activity [5]: Active
- Activity [6]: Active
- Activity [7]: Active
- Activity [8]: Active

- IC50 [1]: 115 nM
- IC50 [2]: 250 nM
Compound: CN[C@@H](C)C(=O)N[C@H]1CN(C(C)=O)CC[C@H]2CC[C@@H](C(=O)NC(c3ccccc3)c3ccccc3)N2C1=O
- Activity [9]: Active
- Activity [10]: Active
- Activity [11]: Active
- Activity [12]: Active
- Activity [13]: Active
- Activity [14]: Active

Compound: CN[C@@H](C)C(=O)N[C@H]1CCCC[C@H]2CC[C@@H](C(=O)N[C@@H](c3ccccc3)c3cn(CCCCc4ccc(CCCCn5cc([C@@H](NC(=O)[C@@H]6CC[C@@H]7CCCC[C@H](NC(=O)[C@H](C)NC)C(=O)N76)c6ccccc6)nn5)cc4)nn3)N2C1=O
- IC50 [1]: 6.8 nM
- IC50 [2]: 16 nM
- Ki [15]: 0.5 nM

Compound: CN[C@@H](C)C(=O)N[C@H]1CN(C(=O)CCCCCCC(=O)N2CC[C@H]3CC[C@@H](C(=O)NC(c4ccccc4)c4ccccc4)N3C(=O)[C@@H](NC(=O)[C@H](C)NC)C2)CC[C@H]2CC[C@@H](C(=O)NC(c3ccccc3)c3ccccc3)N2C1=O
- IC50 [1]: 17.2 nM
- IC50 [2]: 11 nM

Compound: CN[C@@H](C)C(=O)N[C@H]1CN(C(=O)CCCCCCCCCCC(=O)N2CC[C@H]3CC[C@@H](C(=O)NC(c4ccccc4)c4ccccc4)N3C(=O)[C@@H](NC(=O)[C@H](C)NC)C2)CC[C@H]2CC[C@@H](C(=O)NC(c3ccccc3)c3ccccc3)N2C1=O
- IC50 [1]: 10.6 nM
- IC50 [2]: 12 nM

Compound: CN[C@@H](C)C(=O)N[C@H]1CCCC[C@H]2CC[C@@H](C(=O)N[C@@H](c3ccccc3)c3cn(CCCCCCCCn4cc([C@@H](NC(=O)[C@@H]5CC[C@@H]6CCCC[C@H](NC(=O)[C@H](C)NC)C(=O)N65)c5ccccc5)nn4)nn3)N2C1=O
- IC50 [15]: 2.8 nM
- Ki [15]: < 0.5 nM
